This is an account of results in patent US20190350955A1, “METHODS AND PHARMACEUTICAL COMPOSITIONS FOR THE TREATMENT OF CARDIOMYOPATHIES” (INSERM (Institut National de la Sante et de la Recherche …, priority 2016, published 2019).

The subject of one assay is SRF^HKO hearts. Kind of assay: Transcriptomic analysis of SRF HKO hearts after phenylephrine administration. It is filed as in vivo, mouse. The source says:
(§1) Transgenic mice. All experiments with animals conformed to the Directive 2010/63/EU of the European Parliament and were approved by the ethics committee Charles Darvin #5 (agreement 00369.01). SRF^HKO mice bear the tamoxifen-inducible α-MHC-MerCrMer transgene and the Siffloxed allele (Sf/Sf) as described previously (Parlakian et al. (2005). Temporally controlled onset of dilated cardiomyopathy through disruption of the SRF gene in adult heart. Journal 112, 2930-2939; Tritsch et al. (2013). An SRF/miR-1 axis regulates NCX1 and Annexin A5 protein levels in the normal and failing heart. Journal 98, 372-380). Transgenic mice have been bred for more than 20 generations in C57BL/6N background. The mice were housed in standard animal facility (CEF. Hôpital Pitié Salpétrière, agreement A-75-13-15, 75013 Paris), under a 12-h dark/light cycle. Tamoxifen (Sigma T5648) was administrated by i.p. injection at a dose of 0.7 mg diluted in 100 μl peanut oil at day (D) 0, D1 and D2. (Sf/Sf) littermates injected with tamoxifen at the same time than mutant were used as controls.
(§2) The series of mice treated with PE and the impact of the treatment on cardiac parameters have been published previously (Tritsch et al. (2013). An SRF/miR-1 axis regulates NCX1 and Annexin A5 protein levels in the normal and failing heart. Journal 98, 372-380). Briefly. […]

For another assay, the system named is control hearts. Kind of assay: Transcriptomic analysis of control hearts after phenylephrine administration. It is filed as in vivo, mouse. As to conditions: PE 80 mg/kg/day for 15 days.
Text: as §1, §2

A further assay deals with Nmrk2 promoter. Kind of assay: Nmrk2 promoter luciferase reporter assay in NRC. It is filed as cell-based, rat. As to conditions: for activity of the Nmrk2 promoter (p3009-Luc): NRC co-transfected with PPARα and RXR expression vectors; for Nmrk2 promoter induction by AICAR: NRC, p3009-Luc, antagonist added 30 minutes before AICAR for 24 h. How it is done: Isolation and Treatments of Neonatal Rat Cardiomyocytes (NRC) NRC were isolated as described previously (Diguet et al., 2011). 1-day-old rat pups were killed by decapitation and the cardiac ventricles were harvested and minced into 1 to 2-mm wide cubes with scissors. After washing with Tyrode solution, heart fragments were subjected up to 10 rounds of digestion with 0.05 mg/ml of Liberase Blendzyme 4 (Roche Applied Science) in 10 ml oxygenated Tyrode solution under agitation at 37° C. for 10 minutes. The supernatant of the first digestion was discarded and the following digestions were centrifuged and the cell pellet dissociated in 2 ml of DMEM, 10% FCS. The different fractions were pooled and centrifuged on a discontinuous Percoll gradient (bottom 58.5%. top 40.5%. 30 min. 3000 rpm) to enrich in cardiomyocytes at the interface between the 2 Percoll solutions. Non cardiac cells containing mainly fibroblasts were at the top of the tubes. Neonatal cardiomyocytes were seeded at a density 5×10^5 cells/well in 6-well plates coated with 10 μg/ml of laminin (BD Biosciences) in DMEM without pyruvate, with glucose 4.5 g/l, 10% horse serum, 5% FCS and cultured at 37° C. in 1% CO, atmosphere. To assay the impact on NAD^+ and Nmrk2 expression, Azaserin and FK866 drugs were added in the culture medium at day 5 and renewed everyday when the treatment was prolonged over several days. The same was done for NAD^+, NR and AICAR (5-aminoimidazole-4-carboxamide-1-β-D-ribofuranoside). AICAR was administrated for 24 h only. Doses are indicated in the legends. For treatment of transfected cells (see next section), AICAR, FK866 and PPAR agonists and antagonist were administrated 1 day after transfection. PPAR agonists: GW7647 for PPARα, GW501516 for PPARβ/δ and GW1929 for PPARγ; PPAR antagonists: GW6471 PPARα, GSK3787 for PPARβ/δ and GW9662 for PPARγ were ordered from SIGMA ALDRICH CHIMIE, Saint Quentin Fallavier, France.
The transcription initiation site of mouse Nmrk2 promoter was determined by 5′RACE and was conform to the reported site in the Genebank (NM_027120.2). The promoter of the mouse Nmrk2 gene was cloned from C57B16/N genomic DNA by PCR, and inserted into a pGL4.10[luc2] luciferase reporter plasmid (Promega prod no E6651). Subsequent deletions were performed by enzymatic digestion or primer mediated subcloning of the original fragment. 2.5×10^5 cardiomyocytes in 12-well plates were co-transfected at day 2 of culture with 1 μg of Nmrk2 pGL4.10[luc2] constructs and 100 ng of pGL4.73[hRluc/SV40] Vector (Promega prod no E6911) as an internal control of transfection efficiency using Lipofectamine 2000 (Lifetechnology) as indicated by the supplier. In the case of AICAR treatment, Luciferase activity was analyzed 48 h later with the Dual-Luciferase Assay System (Promega).
The pcDNA3 vectors harboring dominant negative AMPK, PPARα, PPARβ and PPARγ as well as RXR genes were kindly provided by Pr. Michel Raymondjean (El Hadri et al. (2015). AMPK Signaling Involvement for the Repression of the IL-1beta-Induced Group IIA Secretory Phospholipase A2 Expression in VSMCs. Journal 10, e0132498; Ravaux et al. (2007). Inhibition of interleukin-1 beta-induced group 11A secretory phospholipase A2 expression by peroxisome proliferator-activated receptors (PPARs) in rat vascular smooth muscle cells: cooperation between PPARbeta and the proto-oncogene BCL-6. Journal 27, 8374-8387; Woods et al. (2000). Characterization of the role of AMP-activated protein kinase in the regulation of glucose-activated gene expression using constitutively active and dominant negative forms of the kinase. Journal 20, 6704-6711). These vectors were cotransfected at a dose of 100 ng/well in 24-well plates with 500 ng of Nmrk2 luciferase constructs.

Assay [1] concerns Lmna^H222P/H222P mice. Kind of assay: NAD+ content quantification in heart and liver of treated Lmna H222P/H222P mice. The class given is in vivo, mouse. To be noted: NAM 500 mg/kg/q.a.d. IP, from 17 weeks of age for 9 weeks, vs placebo. How it is done: Mice were bred in an accredited animal facility (accreditation number: C-75-13-08). All experiments on mice were approved by the Comité d'éthique en expérimentation animate Charles Darwin No 5. Mice Lmna^H222P/H222P were backcrossed 8 times to 129S2/SvPasOrlRj strain mice to obtain pure genetic background. Male mice used for the studies were maintained under a 12 h light/12 h dark cycle at constant temperature (23° C.) with free access to food and water. Nicotinamide riboside (NR) complementation: Animals at 17 weeks of age were fed for 9 weeks with either a chow diet (A04: Scientific Animal Food & Engineering) or a chow diet complemented with 0.25% of NR (kindly provided by ChromaDex, Inc. California) corresponding to a dose of 400 mg/kg/day for a mouse weighing 25 g eating 4 g of food per day. […]
Fresh mouse tissues were homogenized and processed according to previous report (Sander B J, Oelshlegel F J & Brewer G J (1976) Quantitative analysis of pyridine nucleotides in red blood cells: a single-step extraction procedure. Anal. Biochem. 71: 29-36). The concentration of NAD+ in heart tissue was determined using a spectrophotometric assay at 550 nm based on an alcohol dehydrogenase cycling reaction, in which a Methyl Thiazolyl Tetrazolium (MTT) is reduced to Formazan. […]

Assay [2] has as its system Lmna^H222P/H222P mice. Kind of assay: Echocardiography and heart size in treated Lmna H222P/H222P mice. It is filed as in vivo, mouse. To be noted: NAM 500 mg/kg/q.a.d. IP, 9 weeks, vs placebo. As to the method: (§3) Mice were bred in an accredited animal facility (accreditation number: C-75-13-08). All experiments on mice were approved by the Comité d'éthique en expérimentation animate Charles Darwin No 5. Mice Lmna^H222P/H222P were backcrossed 8 times to 129S2/SvPasOrlRj strain mice to obtain pure genetic background. Male mice used for the studies were maintained under a 12 h light/12 h dark cycle at constant temperature (23° C.) with free access to food and water. Nicotinamide riboside (NR) complementation: Animals at 17 weeks of age were fed for 9 weeks with either a chow diet (A04: Scientific Animal Food & Engineering) or a chow diet complemented with 0.25% of NR (kindly provided by ChromaDex, Inc. California) corresponding to a dose of 400 mg/kg/day for a mouse weighing 25 g eating 4 g of food per day. Nicotinamide (NAM) treatment: Animals at 17 weeks of age were injected intraperitoneally (IP) every two days (q.a.d.) for 9 weeks with either physiologic serum or physiologic serum added with NAM at 50 mg/ml corresponding to a dose of 500 mg/kg for a mouse weighing 25 g.
Mouse transthoracic echocardiography was performed using an ACUSON 128XP/10 ultrasound with a 11 Mhz linear probe (Mountain View).MHz transducer applied to the chest wall. Mice were maintained under anesthetized with 0.75% isoflurane anaesthesia (0.75% in O2) and placed on a heating pad (25° C.). Left ventricular (LV) parameters were obtained from M-mode recordings in a modified short axis view. The intra ventricular septum (IVS), LV posterior wall (LVPW), LV diameter (LVD) in diastole and systole, the percentage of fractional shortening (FS) and the heart rate (HR) were measured from the mean of at least three separate cardiac cycles. A “blinded” echocardiographer, unaware of the genotype and the treatment, performed the examinations.

Assay [3] concerns Lmna^H222P/H222P mice. Kind of assay: qPCR of cardiac remodeling markers Myh7, Nppa, Col1a2 in heart. As to conditions: NAM 500 mg/kg/q.a.d. IP, 9 weeks. It is filed as in vivo, mouse. How it is done:
as §3
Total RNAs were extracted from around 5 mg of mouse heart using RNeasy Mini kit (Qiagen). RNAs integrity were controlled on the Bioanalyzer 2100 (Agilent). […] Relative mRNA transcript levels calculated using the 2^ΔCT method were normalized by comparison to housekeeping mRNA.
A general note: In qPCR the cycle at which signal appears reflects the starting amount.

The next assay deals with SRF^HKO mice. Kind of assay: RT-qPCR gene expression in SRF HKO heart. As to conditions: i.p. administration from D8 to D15. It is filed as in vivo, mouse.
Text: as §1
Nicotinamide and nicotinamide riboside i.p. administration. Nicotinamide was diluted in saline at 300 mM. Nicotinamide riboside (NR) bromide salt stock solution (1M) was in 10 mM citric acid pH 6.0. For injection 3 volumes of NR stock solution was mixed extemporaneously with 7 volumes of PBS to obtain a 300 mM injectable solution at pH 7.2. Mice were injected daily at a dose of 1 μmole/g body weight.
SRF^HKO and control (Sf/Sf) mice were administered either rodent maintenance SAFE A04 diet containing 3.10% crude fat. 16.10% crude proteins. 26% starch and 1.9% sugar (Scientific Animal Food Engineering, Paris, France) or SAFE # A04 diet supplemented with NR. NR was provided by Chromadex under brand name NIAGEN (Irvine Calif. USA). The soft pellets were manually prepared every 5 days by mixing 1.65 g of NR into 500 g of powdered SAFE A04 diet and 235 ml of water to reach 2.24 mg of NR/g (wet weight). Control diet was prepared in the same way omitting NR. Mice had ad libitum access to food and water. Mice (average body weight 31.3±0.82 g, no difference between groups) consumed an average of 6 g of soft food per day, reaching a daily intake of 450 mg NR/kg. No difference in food intake was observed between SRF^HKO and control mice.
cDNAs were reverse transcribed from RNA (1.5 μg) extracted in TRIzol (Thermofisher) from cell cultures and tissues using the Superscript II Reverse Transcriptase (Life Technologies). Quantitative PCR was carried out on a Light Cycler 480 (Roche Diagnostics) using Fast Start SYBR Green Master (Roche Diagnostics). Quantification of gene expression was calculated as R=2^ΔCt(Ref Cp−target Cp), with Hprt used as a as reference. Primers were designed using the NCBI Primer-BLAST software. Primer sequences are available on request.

Consider `CNC[C@H](O)c1cccc(O)c1` [PE, phenylephrin], for which the Nmrk2 expression was 57 fold in the assay with SRF^HKO hearts (PE 80 mg/kg/day for 15 days, SRF HKO hearts) and 4 fold in the assay with control hearts. For the same compound, in the assay with SRF^HKO hearts (PE treatment), the “Nampt and Pnp expression” value is “depressed”.
With `CCC(=O)NC[C@H](Cc1ccc(OCCc2nc(-c3ccccc3)oc2C)cc1)N/C(C)=C\C(=O)c1ccc(C(F)(F)F)cc1` [G6471], in the assay with Nmrk2 promoter (antagonist 10 μM), the “activity of the Nmrk2 promoter (p3009-Luc)” value was “repressed”. Moreover, in the assay on Nmrk2 promoter, the “Nmrk2 promoter induction by AICAR” value is given as “blunted”.
On to `O=C(Nc1ccccc1)c1cc([N+](=O)[O-])ccc1Cl` [G9662], for which the “Nmrk2 promoter induction by AICAR” value with Nmrk2 promoter was “Neither the PPARβ antagonist GSK3787 nor the PPARγ antagonist G9662 had any effect”.
Regarding `NC(=O)c1cccnc1` [NAM, Nicotinamide], the “NAD+ content in liver and heart” value in the assay on Lmna^H222P/H222P mice [1] is on record as “did not exhibit any changes”. For the same compound, in the assay with Lmna^H222P/H222P mice [2], the cardiac contractility result is “no significant changes”, the “left-ventricular end diastolic diameter” value is on record as “no significant changes” and the “left-ventricular end systolic diameter” value is reported as “no significant changes”. Moreover, the “expression of Myh7, Nppa and Col1a2” value with Lmna^H222P/H222P mice [3] is reported as “no changed expression”. In the assay with SRF^HKO mice, the “Srf and Nmrk2 expression levels” value was “not changed”.
Consider `O=C(NCCS(=O)(=O)c1ccc(C(F)(F)F)cn1)c1ccc(Cl)cc1` [GSK3787], for which the “Nmrk2 promoter induction by AICAR” value in the assay on Nmrk2 promoter is “Neither the PPARβ antagonist GSK3787 nor the PPARγ antagonist G9662 had any effect”.
Take `CC(C)(Sc1ccc(CCN(CCCCC2CCCCC2)C(=O)NC2CCCCC2)cc1)C(=O)O` [GW7647]: the “activity of the Nmrk2 promoter (p3009-Luc)” value in the assay on Nmrk2 promoter (agonist 0.6 μM) is recorded as “increased”.
